Assay results reported in ChEMBL document CHEMBL1743141, “Membrane transporters in drug development” (Nat Rev Drug Discov, 2010).

Tests used:
Type in all cases: ADME
[1] = target: T1, Solute carrier organic anion transporter family member 1B1 (Homo sapiens, UniProt Q9Y6L6); test: Substrates of transporters of clinical importance in the absorption and disposition of drugs, OATP1B1
T1 sequence (Q9Y6L6 whole entry): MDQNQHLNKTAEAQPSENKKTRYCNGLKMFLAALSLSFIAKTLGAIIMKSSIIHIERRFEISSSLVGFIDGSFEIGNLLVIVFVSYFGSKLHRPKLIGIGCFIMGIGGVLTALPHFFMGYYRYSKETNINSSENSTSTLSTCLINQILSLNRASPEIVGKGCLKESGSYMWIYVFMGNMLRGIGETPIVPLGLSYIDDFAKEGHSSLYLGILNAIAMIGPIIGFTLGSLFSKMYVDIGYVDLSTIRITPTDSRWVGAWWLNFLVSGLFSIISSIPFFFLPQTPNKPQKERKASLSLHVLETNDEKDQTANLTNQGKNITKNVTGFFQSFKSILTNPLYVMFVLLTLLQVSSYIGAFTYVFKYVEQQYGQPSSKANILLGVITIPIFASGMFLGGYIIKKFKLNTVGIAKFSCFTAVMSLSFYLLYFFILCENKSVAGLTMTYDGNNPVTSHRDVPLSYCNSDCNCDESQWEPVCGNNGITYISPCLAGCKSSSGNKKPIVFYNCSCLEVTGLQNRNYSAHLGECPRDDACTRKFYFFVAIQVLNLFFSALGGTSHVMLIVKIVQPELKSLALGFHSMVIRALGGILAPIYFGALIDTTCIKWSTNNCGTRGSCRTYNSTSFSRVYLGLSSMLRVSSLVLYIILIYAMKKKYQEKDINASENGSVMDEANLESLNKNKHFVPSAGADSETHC

[2] = target: T2, Solute carrier organic anion transporter family member 1B3 (Homo sapiens, UniProt Q9NPD5); test: Substrates of transporters of clinical importance in the absorption and disposition of drugs, OATP1B3
T2 sequence (Q9NPD5 whole entry): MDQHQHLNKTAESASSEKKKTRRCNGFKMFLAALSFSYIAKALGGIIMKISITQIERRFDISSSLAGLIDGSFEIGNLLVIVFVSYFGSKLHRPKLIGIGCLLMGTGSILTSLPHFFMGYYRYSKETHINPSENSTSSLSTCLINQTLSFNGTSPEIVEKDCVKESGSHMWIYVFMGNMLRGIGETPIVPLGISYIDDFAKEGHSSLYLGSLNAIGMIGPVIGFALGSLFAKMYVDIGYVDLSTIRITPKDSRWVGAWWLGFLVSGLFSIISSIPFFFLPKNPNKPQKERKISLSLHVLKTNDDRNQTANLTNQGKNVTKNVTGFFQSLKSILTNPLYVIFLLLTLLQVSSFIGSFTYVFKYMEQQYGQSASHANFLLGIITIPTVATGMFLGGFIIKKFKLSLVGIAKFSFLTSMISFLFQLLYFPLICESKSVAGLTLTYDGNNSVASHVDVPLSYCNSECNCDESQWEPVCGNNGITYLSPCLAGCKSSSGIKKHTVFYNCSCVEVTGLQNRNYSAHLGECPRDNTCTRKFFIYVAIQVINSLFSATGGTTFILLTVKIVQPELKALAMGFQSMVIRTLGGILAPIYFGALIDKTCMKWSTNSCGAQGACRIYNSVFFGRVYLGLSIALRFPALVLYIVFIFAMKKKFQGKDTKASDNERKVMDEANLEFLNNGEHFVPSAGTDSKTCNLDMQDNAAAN

[3] = target: ATP-binding cassette sub-family C member 2 (Homo sapiens, UniProt Q92887); test: Substrates of transporters of clinical importance in the absorption and disposition of drugs, MRP2
ATP-binding cassette sub-family C member 2, sequence (Q92887 whole entry): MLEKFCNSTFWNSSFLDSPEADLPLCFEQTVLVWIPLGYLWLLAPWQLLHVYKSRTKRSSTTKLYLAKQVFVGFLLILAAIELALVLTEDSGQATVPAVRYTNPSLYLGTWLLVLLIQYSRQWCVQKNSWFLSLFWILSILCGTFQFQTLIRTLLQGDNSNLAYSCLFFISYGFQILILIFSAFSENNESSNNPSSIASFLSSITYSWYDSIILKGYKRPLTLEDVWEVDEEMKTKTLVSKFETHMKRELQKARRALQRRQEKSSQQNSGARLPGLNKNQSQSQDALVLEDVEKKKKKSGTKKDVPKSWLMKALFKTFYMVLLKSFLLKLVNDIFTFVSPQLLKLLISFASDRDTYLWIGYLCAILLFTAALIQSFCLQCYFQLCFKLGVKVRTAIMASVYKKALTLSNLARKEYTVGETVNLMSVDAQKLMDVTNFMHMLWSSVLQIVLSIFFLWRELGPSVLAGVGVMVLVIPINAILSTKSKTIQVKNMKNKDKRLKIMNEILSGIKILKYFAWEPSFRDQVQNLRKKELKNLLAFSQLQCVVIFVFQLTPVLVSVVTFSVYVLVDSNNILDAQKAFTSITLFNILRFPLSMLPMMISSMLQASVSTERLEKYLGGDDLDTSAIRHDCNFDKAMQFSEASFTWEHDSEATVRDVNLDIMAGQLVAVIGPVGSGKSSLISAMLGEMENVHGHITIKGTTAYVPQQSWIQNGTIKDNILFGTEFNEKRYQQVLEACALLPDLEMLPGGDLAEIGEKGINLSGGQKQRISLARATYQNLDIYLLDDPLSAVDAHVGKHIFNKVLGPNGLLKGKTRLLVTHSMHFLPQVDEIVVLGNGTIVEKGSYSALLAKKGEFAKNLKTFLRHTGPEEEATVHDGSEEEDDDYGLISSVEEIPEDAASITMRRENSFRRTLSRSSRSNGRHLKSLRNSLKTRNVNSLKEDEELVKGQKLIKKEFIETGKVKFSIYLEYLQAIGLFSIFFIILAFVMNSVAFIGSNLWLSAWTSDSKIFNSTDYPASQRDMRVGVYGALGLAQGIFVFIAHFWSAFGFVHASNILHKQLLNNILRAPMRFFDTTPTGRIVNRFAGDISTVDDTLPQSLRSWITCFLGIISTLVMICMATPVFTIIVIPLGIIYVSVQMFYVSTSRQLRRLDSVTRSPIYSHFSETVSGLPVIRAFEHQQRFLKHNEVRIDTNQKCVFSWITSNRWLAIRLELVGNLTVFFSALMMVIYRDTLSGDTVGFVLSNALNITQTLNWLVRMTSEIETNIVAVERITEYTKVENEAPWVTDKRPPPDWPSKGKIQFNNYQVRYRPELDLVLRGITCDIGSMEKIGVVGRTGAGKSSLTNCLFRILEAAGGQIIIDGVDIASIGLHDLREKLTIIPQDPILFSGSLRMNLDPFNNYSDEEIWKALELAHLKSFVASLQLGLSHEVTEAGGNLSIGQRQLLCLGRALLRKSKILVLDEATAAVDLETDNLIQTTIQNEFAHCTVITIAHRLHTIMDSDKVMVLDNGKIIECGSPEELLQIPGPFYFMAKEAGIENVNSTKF

[4] = target: T3, ATP-binding cassette sub-family C member 4 (Homo sapiens, UniProt O15439); test: Substrates of transporters of clinical importance in the absorption and disposition of drugs, MRP4
T3 sequence (O15439 whole entry): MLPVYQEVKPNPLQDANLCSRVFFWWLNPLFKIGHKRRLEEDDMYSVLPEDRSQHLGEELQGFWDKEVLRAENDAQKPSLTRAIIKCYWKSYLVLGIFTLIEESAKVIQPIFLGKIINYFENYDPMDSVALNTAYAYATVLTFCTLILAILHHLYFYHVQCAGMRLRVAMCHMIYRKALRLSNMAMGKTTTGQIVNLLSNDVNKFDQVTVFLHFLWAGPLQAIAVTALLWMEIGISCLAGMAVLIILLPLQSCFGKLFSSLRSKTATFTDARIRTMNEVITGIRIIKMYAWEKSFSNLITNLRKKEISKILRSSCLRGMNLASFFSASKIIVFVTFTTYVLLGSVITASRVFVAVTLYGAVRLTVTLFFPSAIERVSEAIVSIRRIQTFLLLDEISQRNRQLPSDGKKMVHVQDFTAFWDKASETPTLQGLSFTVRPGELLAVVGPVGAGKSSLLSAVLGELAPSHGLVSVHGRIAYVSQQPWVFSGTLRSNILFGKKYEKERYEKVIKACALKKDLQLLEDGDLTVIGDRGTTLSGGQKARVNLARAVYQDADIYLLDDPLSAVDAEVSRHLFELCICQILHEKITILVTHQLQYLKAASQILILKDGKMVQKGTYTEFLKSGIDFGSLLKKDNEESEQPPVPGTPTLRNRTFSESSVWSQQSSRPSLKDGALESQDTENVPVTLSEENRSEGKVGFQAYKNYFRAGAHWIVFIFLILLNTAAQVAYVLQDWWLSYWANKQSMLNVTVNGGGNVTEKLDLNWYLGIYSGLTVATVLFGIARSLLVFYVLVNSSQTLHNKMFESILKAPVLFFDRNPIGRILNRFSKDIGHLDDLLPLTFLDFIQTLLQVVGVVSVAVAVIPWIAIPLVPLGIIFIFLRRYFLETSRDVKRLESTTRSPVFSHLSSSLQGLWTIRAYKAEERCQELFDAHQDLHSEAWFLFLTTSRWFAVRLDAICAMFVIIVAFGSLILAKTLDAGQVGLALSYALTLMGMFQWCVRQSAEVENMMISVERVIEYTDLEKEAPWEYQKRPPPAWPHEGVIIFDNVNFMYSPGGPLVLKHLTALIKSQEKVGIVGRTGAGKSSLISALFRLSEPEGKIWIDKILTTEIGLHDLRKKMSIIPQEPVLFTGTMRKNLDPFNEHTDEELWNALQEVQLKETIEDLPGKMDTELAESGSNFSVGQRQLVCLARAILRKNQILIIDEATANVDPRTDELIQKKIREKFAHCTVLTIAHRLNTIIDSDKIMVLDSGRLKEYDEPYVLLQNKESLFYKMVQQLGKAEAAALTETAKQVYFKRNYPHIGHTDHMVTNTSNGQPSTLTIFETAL

[5] = target: ATP-dependent translocase ABCB1 (Homo sapiens, UniProt P08183); test: Substrates of transporters of clinical importance in the absorption and disposition of drugs, MDR1
ATP-dependent translocase ABCB1, sequence (P08183 whole entry): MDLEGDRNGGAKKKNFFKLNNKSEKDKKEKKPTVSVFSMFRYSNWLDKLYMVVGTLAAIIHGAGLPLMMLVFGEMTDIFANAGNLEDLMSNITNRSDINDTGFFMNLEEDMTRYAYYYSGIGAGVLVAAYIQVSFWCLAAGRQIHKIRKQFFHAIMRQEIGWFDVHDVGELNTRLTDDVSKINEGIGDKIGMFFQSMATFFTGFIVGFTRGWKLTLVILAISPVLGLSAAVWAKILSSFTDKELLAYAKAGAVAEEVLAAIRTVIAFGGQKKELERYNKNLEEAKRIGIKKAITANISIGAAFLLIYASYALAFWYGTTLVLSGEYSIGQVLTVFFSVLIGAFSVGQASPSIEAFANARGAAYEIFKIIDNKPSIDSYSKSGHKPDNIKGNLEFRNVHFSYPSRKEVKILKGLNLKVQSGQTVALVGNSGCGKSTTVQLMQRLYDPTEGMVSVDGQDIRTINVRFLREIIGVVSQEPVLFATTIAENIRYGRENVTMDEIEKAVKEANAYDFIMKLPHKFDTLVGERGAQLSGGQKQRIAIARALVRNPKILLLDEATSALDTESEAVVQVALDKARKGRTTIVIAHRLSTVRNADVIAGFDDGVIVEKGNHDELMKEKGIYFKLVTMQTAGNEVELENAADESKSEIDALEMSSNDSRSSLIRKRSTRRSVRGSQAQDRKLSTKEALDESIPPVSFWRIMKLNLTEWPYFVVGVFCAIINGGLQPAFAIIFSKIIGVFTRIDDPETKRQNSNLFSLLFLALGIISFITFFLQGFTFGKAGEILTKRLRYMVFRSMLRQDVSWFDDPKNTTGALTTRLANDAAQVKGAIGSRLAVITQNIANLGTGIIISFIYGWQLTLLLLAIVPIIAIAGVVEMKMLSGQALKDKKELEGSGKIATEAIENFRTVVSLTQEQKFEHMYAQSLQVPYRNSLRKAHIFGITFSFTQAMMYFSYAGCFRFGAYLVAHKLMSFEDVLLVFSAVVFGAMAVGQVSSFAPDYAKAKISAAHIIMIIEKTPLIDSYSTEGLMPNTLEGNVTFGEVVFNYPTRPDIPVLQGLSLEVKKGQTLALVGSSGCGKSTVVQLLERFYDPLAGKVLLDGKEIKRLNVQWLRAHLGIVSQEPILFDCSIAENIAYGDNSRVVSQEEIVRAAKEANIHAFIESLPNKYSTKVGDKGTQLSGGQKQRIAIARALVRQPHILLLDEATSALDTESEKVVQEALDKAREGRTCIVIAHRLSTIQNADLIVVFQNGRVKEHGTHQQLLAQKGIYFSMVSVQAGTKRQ

[6] = target: T4, Solute carrier organic anion transporter family member 1A2 (Homo sapiens, UniProt P46721); test: Substrates of transporters of clinical importance in the absorption and disposition of drugs, OATP1A2
T4 sequence (P46721 whole entry): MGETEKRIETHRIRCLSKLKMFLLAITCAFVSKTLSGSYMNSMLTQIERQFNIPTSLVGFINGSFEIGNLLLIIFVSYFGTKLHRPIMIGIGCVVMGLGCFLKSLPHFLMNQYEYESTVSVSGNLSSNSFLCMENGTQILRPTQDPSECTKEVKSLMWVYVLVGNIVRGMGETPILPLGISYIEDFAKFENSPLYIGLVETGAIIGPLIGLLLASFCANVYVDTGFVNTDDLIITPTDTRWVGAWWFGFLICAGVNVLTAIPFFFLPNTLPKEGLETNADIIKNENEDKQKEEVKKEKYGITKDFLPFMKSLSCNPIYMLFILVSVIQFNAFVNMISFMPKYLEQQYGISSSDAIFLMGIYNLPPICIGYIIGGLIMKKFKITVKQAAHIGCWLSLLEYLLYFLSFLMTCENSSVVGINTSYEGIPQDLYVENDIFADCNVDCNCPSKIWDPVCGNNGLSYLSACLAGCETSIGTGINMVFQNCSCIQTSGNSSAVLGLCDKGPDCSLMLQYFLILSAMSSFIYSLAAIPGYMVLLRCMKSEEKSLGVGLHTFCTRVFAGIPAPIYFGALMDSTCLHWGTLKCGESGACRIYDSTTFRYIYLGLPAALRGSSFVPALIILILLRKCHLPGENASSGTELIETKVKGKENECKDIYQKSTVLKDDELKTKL

[7] = target: T5, Solute carrier family 15 member 1 (Homo sapiens, UniProt P46059); test: Substrates of transporters of clinical importance in the absorption and disposition of drugs, PEPT1
T5 sequence (P46059 whole entry): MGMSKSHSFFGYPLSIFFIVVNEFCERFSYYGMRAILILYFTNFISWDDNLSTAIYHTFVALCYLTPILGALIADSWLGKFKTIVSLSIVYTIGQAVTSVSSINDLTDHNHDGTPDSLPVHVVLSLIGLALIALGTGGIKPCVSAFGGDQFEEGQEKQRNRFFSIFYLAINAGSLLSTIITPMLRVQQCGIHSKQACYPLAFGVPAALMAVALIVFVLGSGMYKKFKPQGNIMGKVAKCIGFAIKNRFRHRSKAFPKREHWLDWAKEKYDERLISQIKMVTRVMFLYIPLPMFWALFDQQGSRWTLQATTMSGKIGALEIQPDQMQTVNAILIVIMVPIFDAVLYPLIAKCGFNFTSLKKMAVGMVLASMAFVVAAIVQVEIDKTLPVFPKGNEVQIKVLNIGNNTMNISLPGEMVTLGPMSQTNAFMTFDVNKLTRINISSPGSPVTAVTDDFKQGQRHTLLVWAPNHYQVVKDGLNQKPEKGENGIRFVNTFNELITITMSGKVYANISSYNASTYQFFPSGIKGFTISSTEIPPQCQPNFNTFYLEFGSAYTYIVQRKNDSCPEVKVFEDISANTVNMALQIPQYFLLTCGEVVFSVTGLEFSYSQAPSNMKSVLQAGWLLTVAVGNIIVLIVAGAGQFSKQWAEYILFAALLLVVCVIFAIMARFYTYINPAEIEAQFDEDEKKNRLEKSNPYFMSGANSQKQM

[8] = target: T6, Solute carrier family 15 member 2 (Homo sapiens, UniProt Q16348); test: Substrates of transporters of clinical importance in the absorption and disposition of drugs, PEPT2
T6 sequence (Q16348 whole entry): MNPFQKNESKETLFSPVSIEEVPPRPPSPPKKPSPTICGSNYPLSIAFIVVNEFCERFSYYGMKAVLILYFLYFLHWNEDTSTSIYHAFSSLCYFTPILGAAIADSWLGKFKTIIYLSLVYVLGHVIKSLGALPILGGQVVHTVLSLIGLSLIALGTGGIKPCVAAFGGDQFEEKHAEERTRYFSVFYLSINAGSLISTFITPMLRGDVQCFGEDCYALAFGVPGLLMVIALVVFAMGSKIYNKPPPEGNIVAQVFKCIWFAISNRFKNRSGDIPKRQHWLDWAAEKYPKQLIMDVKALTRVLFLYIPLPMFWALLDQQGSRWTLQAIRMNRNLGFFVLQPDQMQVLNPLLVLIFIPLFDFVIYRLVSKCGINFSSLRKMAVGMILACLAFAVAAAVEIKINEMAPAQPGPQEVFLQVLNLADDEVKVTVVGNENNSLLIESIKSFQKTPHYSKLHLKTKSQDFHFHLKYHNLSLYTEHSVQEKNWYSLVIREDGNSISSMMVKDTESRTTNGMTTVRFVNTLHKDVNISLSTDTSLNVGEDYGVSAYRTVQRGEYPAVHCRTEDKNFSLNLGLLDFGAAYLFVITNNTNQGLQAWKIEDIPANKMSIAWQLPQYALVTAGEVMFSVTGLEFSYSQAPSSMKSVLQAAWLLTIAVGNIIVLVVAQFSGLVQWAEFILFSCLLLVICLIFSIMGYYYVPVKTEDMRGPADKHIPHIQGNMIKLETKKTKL

CCCCC(=O)N(Cc1ccc(-c2ccccc2-c2nnn[nH]2)cc1)[C@H](C(=O)O)C(C)C
Activity [1]: transporter substrate
Activity [2]: transporter substrate
Activity [3]: transporter substrate

CCc1c2c(nc3ccc(OC[C@@H]4O[C@H](C(=O)O)[C@@H](O)[C@H](O)[C@H]4O)cc13)-c1cc3c(c(=O)n1C2)COC(=O)[C@]3(O)CC
Activity [3]: transporter substrate

Nc1nc2c(ncn2[C@@H]2O[C@@H]3COP(=O)(O)O[C@H]3[C@H]2O)c(=O)[nH]1
Activity [4]: transporter substrate

COc1ccc2cc3[n+](cc2c1OC)CCc1cc2c(cc1-3)OCO2.[Cl-] [BERBERINE CHLORIDE]
Activity [5]: transporter substrate

COc1cccc2c1C(=O)c1c(O)c3c(c(O)c1C2=O)C[C@@](O)(C(=O)CO)C[C@@H]3O[C@H]1C[C@H](N)[C@H](O)[C@H](C)O1 [DOXORUBICIN]
Activity [5]: transporter substrate

COc1cc([C@@H]2c3cc4c(cc3[C@@H](O[C@@H]3O[C@@H]5CO[C@@H](C)O[C@H]5[C@H](O)[C@H]3O)[C@H]3COC(=O)[C@H]23)OCO4)cc(OC)c1O [ETOPOSIDE]
Activity [3]: transporter substrate

CN(C)C(=O)C(CCN1CCC(O)(c2ccc(Cl)cc2)CC1)(c1ccccc1)c1ccccc1 [LOPERAMIDE]
Activity [5]: transporter substrate

CCCc1nc(C(C)(C)O)c(C(=O)O)n1Cc1ccc(-c2ccccc2-c2nnn[nH]2)cc1 [OLMESARTAN]
Activity [1]: transporter substrate
Activity [2]: transporter substrate
Activity [3]: transporter substrate

C[C@]12CC[C@H](OS(=O)(=O)O)CC1=CC[C@@H]1[C@@H]2CC[C@]2(C)C(=O)CC[C@@H]12 [PRASTERONE SULFURIC ACID]
Activity [6]: transporter substrate
Activity [4]: transporter substrate

CC(C)[C@H](N)C(=O)OCCOCn1cnc2c(=O)[nH]c(N)nc21 [VALACYCLOVIR]
Activity [7]: transporter substrate
Activity [8]: transporter substrate
